# Assay results from US20050209278A1, “Piperidinyl- and piperazinyl-sulfonylmethyl hydroxamic acids and their use as protease inhibitors” (priority 2002, published 2005).
# Like-named read-outs stand apart in the source and are kept apart here.
# Assays:
# MMP-14 = target: T1, MMP-14 (Homo sapiens, UniProt P50281); test: In vitro MMP inhibition, IC50 determination (fluorogenic substrate I); type: biochemical; settings: read-out: MMP-14 (IC-50)
# T1 construct: The catalytic domain enzyme was expressed in E. coli inclusion bodies, solubilized in urea; made in house
# MMP-1 = target: T2, MMP-1 (Homo sapiens, UniProt P03956); test: as above; type: biochemical; settings: read-out: MMP-1 (IC-50)
# T2 construct: made in house; host or cells: MMP-1-transfected HT-1080 cells (spent media)
# T2 sequence (P03956 100-469): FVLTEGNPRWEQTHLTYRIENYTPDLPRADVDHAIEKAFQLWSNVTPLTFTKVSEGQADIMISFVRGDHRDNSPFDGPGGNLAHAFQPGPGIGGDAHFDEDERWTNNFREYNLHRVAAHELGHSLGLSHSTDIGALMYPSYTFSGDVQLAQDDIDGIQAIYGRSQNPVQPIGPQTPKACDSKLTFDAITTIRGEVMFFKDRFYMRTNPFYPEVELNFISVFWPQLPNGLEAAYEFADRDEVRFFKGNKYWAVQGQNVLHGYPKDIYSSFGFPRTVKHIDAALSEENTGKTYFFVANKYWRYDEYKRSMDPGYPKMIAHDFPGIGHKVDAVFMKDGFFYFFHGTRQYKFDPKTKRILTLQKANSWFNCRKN
Compound,IC50 (MMP-14; value in parentheses),IC50 (MMP-1; value in parentheses),IC50 (MMP-14; value in parenthesis),IC50 (MMP-1; value in parenthesis)
CCCCOc1ccc(N2CCN(S(=O)(=O)C3(C(=O)NO)CCN(C(=O)CCC)CC3)CC2)cc1 [Example 290],3.8 µM,> 10 µM,,
CCCOc1ccc(N2CCN(S(=O)(=O)C3(C(=O)NO)CCN(CCOC)CC3)CC2)cc1F [Example 185],,,> 10 µM,> 10 µM
COCCN1CCC(C(=O)NO)(S(=O)(=O)N2CCN(c3ccc(CC4CCC4)cc3)CC2)CC1 [Example 183],,,2.04 µM,> 10 µM
COCCN1CCC(C(=O)NO)(S(=O)(=O)N2CCN(c3ccc(CC4CCCCC4)cc3)CC2)CC1 [Example 181],,,> 10 µM,> 10 µM
COCCN1CCC(C(=O)NO)(S(=O)(=O)N2CCN(c3ccc(C#N)cc3)CC2)CC1 [Example 186],,,7.48 µM,> 10 µM
CCOc1ccc(N2CCN(S(=O)(=O)C3(C(=O)NO)CCN(CCOC)CC3)CC2)cc1F [Example 184],,,2.4 µM,> 10 µM
CCc1cnc(N2CCN(S(=O)(=O)C3(C(=O)NO)CCN(CCOC)CC3)CC2)nc1 [Example 187],,,> 10 µM,> 10 µM

# The next lines start with the values.
IC50 (MMP-14; value in parentheses),IC50 (MMP-1; value in parentheses),IC50 (MMP-14; value in parenthesis),IC50 (MMP-1; value in parenthesis),Compound
,,5.56 µM,> 10 µM,COCCCc1ccc(N2CCN(S(=O)(=O)C3(C(=O)NO)CCN(CCOC)CC3)CC2)cc1 [Example 180]
,,3.62 µM,> 10 µM,CCOCCCc1ccc(N2CCN(S(=O)(=O)C3(C(=O)NO)CCN(CCOC)CC3)CC2)cc1 [Example 179]
,,7.85 µM,> 10 µM,COCCN1CCC(C(=O)NO)(S(=O)(=O)N2CCN(c3ccc(CCC4CCCC4)cc3)CC2)CC1 [Example 182]
,,> 10 µM,> 10 µM,CCC(CC)Cc1ccc(N2CCN(S(=O)(=O)C3(C(=O)NO)CCN(CCOC)CC3)CC2)cc1 [Example 188]
